Results published in article PMC3877894, “Cytotoxic, Cytostatic and HIV-1 PR Inhibitory Activities of the Soft Coral Litophyton arboreum” (Marine Drugs, 2013).
Where “and” joins values, the source holds several entries; their conditions need not be identical. Identical values can stand only once. Entries after “also recorded” stand apart in the source; their conditions may differ. Like-named read-outs stand apart in the source and are kept apart here. Starred links: 1 amine or outer side, 2 acyl side, 3 side chain; linkers in the order of their positions; H or OH if unused. Positions of bridges follow the written chain, without caps; N, C: chain ends. Non-standard residues stand in square brackets, D forms with d. Residues, ends and D or L forms follow the SMILES beside them. Chains are numbered I, II in the order given. Actinocin(9to1) = Cc1c2oc3c(C)ccc(C(=O)[*:1])c3nc-2c(C(=O)[*:2])c(N)c1=O; NMeV = CN[C@H](C(=O)O)C(C)C; Sar = CNCC(=O)O

How the values were obtained:
[1] = XTT cytotoxicity assay in HeLa cells; settings: human
Experimental: (§1) HeLa, U937, and Vero cell lines were maintained in culture flasks containing Eagle’s Minimum Essential Medium supplemented with 10% heat-inactivated FBS and 1% antibiotics (100 U/mL penicillin, 100 μg/mL streptomycin, and 250 μg/mL fungizone). The cells were grown at 37 °C in a humidified incubator set at 5% CO2. Cells were subcultured after they formed a monolayer on the flask. The cells were detached by treating them with trypsin-EDTA (0.25% trypsin containing 0.01% EDTA) for 10 minutes and then by adding complete medium to inhibit the reaction. Cytotoxicity was measured by the XTT method using the Cell Proliferation Kit II. The method described by Zheng et al. was used to perform the assay. Cells were seeded (100 μL) in a 96-well microtiter plate (concentration 1 × 10^5 cells/mL). The plate was then incubated for 24 h at 37 °C and 5% CO2 to allow the cells to attach to the bottom of the wells. The compounds were each prepared to a stock solution of 20 mg/mL and added to the microtiter plate. Serial dilutions were made to range from a concentration of 100 μg/mL–0.7 μg/mL for each compound. The microtiter plate was incubated for a further 72 h. The control wells included vehicle-treated cells exposed to 2% DMSO and the positive control Actinomycin D, with concentrations ranging between 0.5 μg/mL and 0.002 μg/mL. After the 72 h incubation period, the XTT reagent (50 μL) was added to a final concentration of 0.3 mg/mL and the plate was then further incubated for another 2 h. After the incubation the absorbance of the color complex was read at 490 nm with a reference wavelength set at 690 nm. […] The IC50 values were reported at ±95% confidence intervals (±95% CI). The results were analyzed using the GraphPad Prism 4 program.

[2] = XTT cytotoxicity assay in Vero cells; settings: African green monkey
Experimental: as §1

[3] = XTT cytotoxicity assay in U937 cells; settings: human
Experimental: as §1

HeLa cells [4] = assay: Real-time cell electronic sensing (RT-CES, xCELLigence) in HeLa cells; format: cell-based; settings: for inhibition of cell proliferation compared to untreated cells (RT-CES): HeLa, Figure 5
Experimental: The xCELLigence system was used according to the instructions of the supplier (Roche Diagnostics, Mannheim, Germany and ACEA Biosciences, San Diego, CA, USA). HeLa cell line, media, trypsin-EDTA, fetal bovine serum (FBS), phosphate buffer saline (PBS), and antibiotics were supplied by […] Biological (Pty) Ltd. (Modderfontein, Johannesburg, South Africa). The electronic impedance of sensor electrodes that connect the E plate to the instrument is measured to allow monitoring and detection of physiological changes of the cells on the electrodes. The impedance measured between electrodes in an individual well depends on electrode geometry, ion concentration in the well and whether or not cells are attached to the electrodes. In the absence of cells, electrode impedance is mainly determined by the ion environment, both at the electrode/solution interface, and in the bulk solution. In the presence of cells, cells attached to the electrode sensor surfaces will act as insulators and thereby alter the local ion environment at the electrode/solution interface, leading to an increase in impedance. Thus, the more cells that are growing on the electrodes, the larger the value of electrode impedance. This assay has been described for the measurement of cytotoxicity and can be used to determine other cellular parameters such as cell proliferation, cytotoxicity start time, cell recovery, and cell response patterns in real time. HeLa cells were grown and expanded in tissue-culture flasks. After reaching ~75% confluence, the HeLa were washed with PBS, and afterwards detached from the flasks by a brief treatment with trypsin. Subsequently, 50 μL of cell culture media at room temperature was added into each well of E-plate. After this the plate was connected to the system and checked in the cell culture incubator for proper electrical-contacts and the background impedance was measured over 24 h. […] One-hundred microliters of each cell suspension was added to the 50 μL medium containing wells on the E-plate, in order to determine the optimum cell concentration. After 30 min incubation at room temperature, E-plates were placed into the cell culture incubator. Finally, adhesion, growth, and proliferation of the cells was monitored every 30 min for a period of up to 18 h via the incorporated sensor electrode arrays of the E-Plate. The electrical impedance was measured by the RTCA-integrated software of the xCELLigence system as a dimensionless parameter termed Cell index (CI). […] All experiments were run for 72 h after adding the compounds. All calculations were obtained using the RTCA-integrated software of the xCELLigence system.

HeLa cells [5] = assay: XTT cytotoxicity assay in HeLa cells; settings: for IC50: read-out: Cytotoxicity IC50 HeLa, XTT, 72 h incubation
Experimental: as §1

HIV-1 PR = biological target: T1, HIV-1 PR (Human immunodeficiency virus type 1 group M subtype B, UniProt P04585); assay: HIV-1 protease direct enzyme assay (fluorogenic peptide substrate); format: biochemical; settings: for inhibition at 100 µg/mL: screened at 100 µg/mL
T1 construct: HIV-1 protease enzyme was purchased from Bachem Bioscience Inc; purchased Bachem Bioscience Inc
Experimental: HIV-1 protease enzyme was purchased from Bachem Bioscience Inc. King of Prussia, PA, […] and the substrate (a synthetic peptide that contains a cleavage site Tyr-Pro for HIV protease as well as two covalently modiﬁed amino acids for the detection of cleavage). The assay was performed according to procedures by Lam et al., 2000 [39], in black 96 well assay plates obtained from Corning Incorporated, (Corning, New York, NY, USA). The fluorescence intensity was measured at an excitation wavelength of 355 nm and an emission wavelength of 460 nm using a synergy microplate spectrofluorometer (BioTek, Analytical & Diagnostic products, South Africa). […] DMSO was included in the enzyme control (1% DMSO). […] The percentage inhibition was calculated based on the formula: 100 − [(Test reagent RFU − background RFU)/(untreated control RFU − blank) × 100] where RFU = relative fluorescence units.
All the experiments were repeated three times in order to ensure the precision and accuracy of the data.

KB = test system: KB; set-up: method as in PMID 9722490; settings: cited from earlier work
[6] = test system: human prostate cancer cell line LNCaP; settings: cited from earlier work
A549 cancer cell lines = settings: cited from earlier work
HT-29 = settings: cited from earlier work
P-388 = settings: cited from earlier work
Vero cell line = assay: XTT cytotoxicity assay in Vero cells; settings: at 4.85 µM (HIV-1 PR IC50 concentration)
Experimental: as §1

U937 cells = assay: XTT cytotoxicity assay in U937 cells; settings: at 4.85 µM (HIV-1 PR IC50 concentration)
Experimental: as §1

[7] = HeLa cells, Cytotoxicity IC50 HeLa, XTT, 72 h incubation
[8] = HeLa cells, Cytotoxicity IC50 HeLa, XTT

Structure (SMILES): CC(C)C1=C[C@H]2[C@@H](CC[C@]2(C)O)[C@](C)(O)CC1 [Compound 5, alismoxide]
- IC50 at 72 h [1, 7]: > 100 µM
- IC50 at 72 h ([2]; Vero cells): > 100 µM
- IC50 at 72 h ([3]; U937 cells): > 100 µM
- RT-CES effect in HeLa (HeLa cells [4]; 60 μg/mL (Figure 5)): cytostatic behavior
- RT-CES (xCELLigence) effect in HeLa (HeLa cells [4]; 100 µg/mL): cytostatic effect
- inhibition of cell proliferation compared to untreated cells (RT-CES) (HeLa cells [4]): 50%

Structure (SMILES): CCCCCCCCCCCCCC=CCCC=CC(O)C(CO)NC(=O)CCCCCCCCCCC (stereo not drawn) [Compound 8, erythro-N-dodecanoyl-docosasphinga-(4E,8E)-dienine]
- IC50 at 72 h [1, 7]: 71 µM
- IC50 (HeLa cells [5]): 38.2 ± 0.7 µM
- IC50 at 72 h ([2]; Vero cells): > 100 µM
- IC50 at 72 h ([3]; U937 cells): > 100 µM
- IC50 (HIV-1 PR; read-out: IC50 HIV-1 PR): 4.8 ± 0.92 µM
- inhibition at 100 µg/mL (HIV-1 PR): 100%
- RT-CES (xCELLigence) effect in HeLa (HeLa cells [4]; 100 µg/mL): only affected at long incubation times; also recorded: low level cytotoxicity

Structure (SMILES): CCCCCCCCCCCCCCCCOC[C@@H](O)CO [Compound 6, (S)-chimyl alcohol]
- IC50 at 72 h [1, 7]: 23.4 ± 5.8 µM
- IC50 at 72 h ([2]; Vero cells): 60 ± 1.14 µM
- IC50 (HIV-1 PR; read-out: IC50 HIV-1 PR): 26.6 ± 2.6 µM
- inhibition at 100 µg/mL (HIV-1 PR): 100%

Structure (SMILES): Cc1c2oc3c(C)ccc(C(=O)N[C@@H]4C(=O)N[C@H](C(C)C)C(=O)N5CCC[C@H]5C(=O)N(C)CC(=O)N(C)[C@@H](C(C)C)C(=O)O[C@@H]4C)c3nc-2c(C(=O)N[C@@H]2C(=O)N[C@H](C(C)C)C(=O)N3CCC[C@H]3C(=O)N(C)CC(=O)N(C)[C@@H](C(C)C)C(=O)O[C@@H]2C)c(N)c1=O [Actinomycin D, reference compound] (I: T[dV]P[Sar][NMeV] / II: T[dV]P[Sar][NMeV]; ester I:1-I:C, II:1-II:C; linker I:N-II:N via Actinocin(9to1))
- IC50 at 72 h [1]: 5.1 ± 0.1 µM
- IC50 at 72 h [2]: 8.8 ± 2.5 µM
- IC50 at 72 h [3]: 1.9 ± 0.865 µM

Structure (SMILES): CC1=CCCC(C)=CCC(O)(C(C)C)CCC(C)=CCC1 (centres unmarked) [Compound 1, sarcophytol M]
- IC50 at 72 h [1, 8]: 8.1 µg/mL
- IC50 at 72 h [1, 7]: 27.5 ± 0.2 µM
- IC50 at 72 h ([2]; Vero cells): 22 ± 0.2 µM
- IC50 at 72 h ([3]; U937 cells): 31.7 ± 3.2 µM
- IC50 (HIV-1 PR; read-out: IC50 HIV-1 PR): 15.7 ± 0.1 µM
- inhibition at 100 µg/mL (HIV-1 PR): 100%

Structure (SMILES): C=C(CC[C@@H](C)[C@H]1CCC2C3C(CC[C@@]21C)[C@@]1(CO)CC[C@H](O)CC1=C[C@@H]3O)C(C)C (stereo partly drawn) [Compound 9, 24-methylcholesta-5,24(28)-diene-3β,7β,19-triol]
- IC50 at 72 h ([1]; Cytotoxicity IC50 HeLa): 3.4 µg/mL and 8 µM
- IC50 at 72 h [2]: 11.4 ± 0.04 µM
- IC50 at 72 h [3]: 16.4 ± 1.25 µM
- Cytotoxicity KB (KB): 0.58 µg/mL
- Cytotoxicity IC50 LNCaP [6]: 4.9 µg/mL
- Cytotoxicity A549 (A549 cancer cell lines): 0.69 µg/mL
- Cytotoxicity HT-29 (HT-29): 0.72 µg/mL
- Cytotoxicity P-388 (P-388): 0.24 µg/mL

Structure (SMILES): C=C(CCC(C)C1CCC2C3C(OC(C)=O)C=C4CC(O)CCC4(CO)C3CCC12C)C(C)C (stereo not drawn) [Compound 7, 7β-acetoxy-24-methylcholesta-5-24(28)-diene-3,19-diol]
- CC50 at 72 h ([1]; HeLa cells): 4.3 ± 0.75 µM
- IC50 at 72 h [1, 8]: 4.3 µg/mL
- IC50 at 72 h [1, 7]: 4.3 µM
- cell death in HeLa (HeLa cells [5]; at 4.85 µM (HIV-1 PR IC50 concentration)): 50%
- IC50 (HeLa cells [5]): 5.3 ± 0.6 µM
- IC50 at 72 h ([2]; Vero cells): 31.3 ± 14 µM
- effect in Vero (normal cells) (Vero cell line): no effect
- IC50 at 72 h [3]: 7.8 µg/mL and 10.6 µM
- cell death in U937 (U937 cells): 20%
- IC50 (HIV-1 PR): 4.85 ± 0.18 µM
- inhibition at 100 µg/mL (HIV-1 PR): 71.5%
- RT-CES response in HeLa (HeLa cells [4]; 2.5 µg/mL): dose dependent cytostatic response; also recorded: cytostatic effects
- RT-CES response in HeLa (HeLa cells [4]; 10 and 5 µg/mL): dose dependent cytotoxic response; also recorded: dose dependent cytotoxic tendency
- RT-CES cytotoxicity profile in HeLa (HeLa cells [4]; tested at IC50s obtained by XTT): confirmed their cytotoxic effects; also recorded: more toxic than the positive control
- Cytotoxicity KB (KB): 0.38 µg/mL
- Cytotoxicity IC50 LNCaP [6]: 15.5 µg/mL
- Cytotoxicity A549 (A549 cancer cell lines): 0.81 µg/mL
- Cytotoxicity HT-29 (HT-29): 0.87 µg/mL
- Cytotoxicity P-388 (P-388): 0.42 µg/mL

Structure (SMILES): CO[C@]1(C)CCC(C(C)C)=C[C@H]2[C@H]1CC[C@]2(C)O [Compound 4, 10-O-methyl alismoxide]
- IC50 at 72 h [1, 7]: 38 ± 0.7 µM
- IC50 at 72 h ([2]; Vero cells): 49.8 ± 0.5 µM
- IC50 at 72 h ([3]; U937 cells): 50 ± 0.23 µM

Structure (SMILES): C=C1CCC(C(C)C)=CC2C1CCC2(C)O (centres unmarked) [Compound 2, alismol]
- IC50 at 72 h [1, 7]: 30 ± 17.2 µM
- IC50 at 72 h ([2]; Vero cells): 49 µM
- IC50 (HIV-1 PR; read-out: IC50 HIV-1 PR): 7.2 ± 0.7 µM
- inhibition at 100 µg/mL (HIV-1 PR): 96.2%
- RT-CES effect in HeLa (HeLa cells [4]; 16 μg/mL (Figure 5)): cytostatic behavior
- RT-CES (xCELLigence) effect in HeLa (HeLa cells [4]; 30 µg/mL): cytostatic effect
- inhibition of cell proliferation compared to untreated cells (RT-CES) (HeLa cells [4]): 50%

Structure (SMILES): C=C(CC[C@@H](C)[C@H]1CCC2C3CC=C4C[C@@H](O)CC[C@]4(C)C3CC[C@@]21C)C(C)C (stereo partly drawn) [Compound 3, 24-methylcholesta-5,24(28)-diene-3β-ol]
- IC50 at 72 h [1, 7]: 48 ± 8.7 µM
- IC50 at 72 h ([2]; Vero cells): 100 ± 1.2 µM
